In ChEMBL document CHEMBL4819069, “Discovery of multifunctional anti-Alzheimer's agents with a unique mechanism of action including inhibition of the enzyme butyrylcholinesterase and γ-aminobutyric acid transporters” (Eur J Med Chem, 2021):
Calls of active or inactive are those of the source. The calls are words filed in the database; no cut-off is given here.

Experiments:
[1] = target: T1, GABA transporter 4 (Mus musculus, UniProt P31650); assay: Inhibition of mouse GAT4 expressed in HEK293 cell line assessed as reduction in [3H]GABA uptake incubated for 10 mins; type: cell-based
T1 sequence (P31650 whole entry): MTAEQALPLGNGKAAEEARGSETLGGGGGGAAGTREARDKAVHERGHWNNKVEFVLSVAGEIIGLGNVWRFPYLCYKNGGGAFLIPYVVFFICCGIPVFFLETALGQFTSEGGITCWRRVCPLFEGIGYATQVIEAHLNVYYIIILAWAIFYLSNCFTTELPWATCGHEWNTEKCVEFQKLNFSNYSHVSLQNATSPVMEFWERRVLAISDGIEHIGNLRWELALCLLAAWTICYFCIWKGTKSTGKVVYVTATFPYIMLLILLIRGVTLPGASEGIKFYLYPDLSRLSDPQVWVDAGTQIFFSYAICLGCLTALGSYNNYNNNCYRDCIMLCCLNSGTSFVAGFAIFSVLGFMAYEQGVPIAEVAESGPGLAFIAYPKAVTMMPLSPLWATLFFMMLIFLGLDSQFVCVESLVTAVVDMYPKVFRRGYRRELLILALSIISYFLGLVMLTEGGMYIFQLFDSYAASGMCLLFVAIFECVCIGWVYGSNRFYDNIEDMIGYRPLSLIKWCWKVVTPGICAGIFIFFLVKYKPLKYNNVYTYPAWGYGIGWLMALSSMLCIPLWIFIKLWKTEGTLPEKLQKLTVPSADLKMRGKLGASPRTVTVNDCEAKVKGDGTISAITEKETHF

[2] = target: Cholinesterase (Equus caballus, UniProt P81908)
Sequence of Cholinesterase (Equus caballus, UniProt P81908) (P81908 whole entry): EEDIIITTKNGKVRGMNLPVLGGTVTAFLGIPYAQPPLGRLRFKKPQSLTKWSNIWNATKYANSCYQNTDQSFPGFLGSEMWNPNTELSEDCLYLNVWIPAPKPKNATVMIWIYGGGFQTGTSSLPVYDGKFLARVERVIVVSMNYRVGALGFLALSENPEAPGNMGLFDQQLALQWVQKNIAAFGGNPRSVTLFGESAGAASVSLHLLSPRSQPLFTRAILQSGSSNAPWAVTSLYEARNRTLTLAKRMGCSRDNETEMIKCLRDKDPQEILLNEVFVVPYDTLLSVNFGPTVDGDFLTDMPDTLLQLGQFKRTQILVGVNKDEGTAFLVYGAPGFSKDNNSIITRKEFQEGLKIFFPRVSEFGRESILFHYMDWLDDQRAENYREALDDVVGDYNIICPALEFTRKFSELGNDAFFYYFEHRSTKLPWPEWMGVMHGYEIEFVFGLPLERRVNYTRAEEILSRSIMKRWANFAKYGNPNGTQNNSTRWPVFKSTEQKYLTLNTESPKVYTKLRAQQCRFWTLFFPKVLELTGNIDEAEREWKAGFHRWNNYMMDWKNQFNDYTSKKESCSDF
Description: Inhibition of equine serum BuChE using butyrylthiocholine as substrate preincubated for 5 mins followed by substrate addition and measured after 5 mins by Ellman's method

[3] = target: Amyloid-beta precursor protein (Homo sapiens) (UniProt P05067); assay: Inhibition of HFIP-pretreated amyloid beta (1 to 42) (unknown origin) aggregation at 10 uM after 36 to 48 hrs by thioflavin-T fluorescence assay relative to control; settings: time 36-48 hrs
Sequence of Amyloid-beta precursor protein (Homo sapiens) (P05067 whole entry): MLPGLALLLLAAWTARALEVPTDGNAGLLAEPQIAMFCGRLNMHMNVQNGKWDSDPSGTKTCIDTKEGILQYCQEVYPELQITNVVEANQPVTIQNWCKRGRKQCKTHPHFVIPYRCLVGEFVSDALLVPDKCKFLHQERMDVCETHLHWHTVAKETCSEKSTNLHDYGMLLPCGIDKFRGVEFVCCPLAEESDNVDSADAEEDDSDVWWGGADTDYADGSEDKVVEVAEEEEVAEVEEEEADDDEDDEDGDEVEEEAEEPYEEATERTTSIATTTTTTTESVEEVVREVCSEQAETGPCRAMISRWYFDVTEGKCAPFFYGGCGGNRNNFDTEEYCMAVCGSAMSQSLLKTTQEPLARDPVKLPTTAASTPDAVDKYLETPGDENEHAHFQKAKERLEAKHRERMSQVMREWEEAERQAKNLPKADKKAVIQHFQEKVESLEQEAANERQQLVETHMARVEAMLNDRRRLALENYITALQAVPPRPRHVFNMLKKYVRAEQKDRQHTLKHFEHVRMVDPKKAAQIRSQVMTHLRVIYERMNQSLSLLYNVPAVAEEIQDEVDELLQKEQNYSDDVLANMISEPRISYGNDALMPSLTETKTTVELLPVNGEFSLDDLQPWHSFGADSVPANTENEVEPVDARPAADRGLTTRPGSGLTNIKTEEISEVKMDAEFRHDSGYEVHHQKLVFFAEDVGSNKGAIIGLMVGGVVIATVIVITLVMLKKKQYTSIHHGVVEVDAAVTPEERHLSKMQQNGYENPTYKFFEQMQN

[4] = target: T2, Beta-secretase 1 (Homo sapiens, UniProt P56817); settings: dose 50.0 µM, time 60.0 min
T2 sequence (P56817 whole entry): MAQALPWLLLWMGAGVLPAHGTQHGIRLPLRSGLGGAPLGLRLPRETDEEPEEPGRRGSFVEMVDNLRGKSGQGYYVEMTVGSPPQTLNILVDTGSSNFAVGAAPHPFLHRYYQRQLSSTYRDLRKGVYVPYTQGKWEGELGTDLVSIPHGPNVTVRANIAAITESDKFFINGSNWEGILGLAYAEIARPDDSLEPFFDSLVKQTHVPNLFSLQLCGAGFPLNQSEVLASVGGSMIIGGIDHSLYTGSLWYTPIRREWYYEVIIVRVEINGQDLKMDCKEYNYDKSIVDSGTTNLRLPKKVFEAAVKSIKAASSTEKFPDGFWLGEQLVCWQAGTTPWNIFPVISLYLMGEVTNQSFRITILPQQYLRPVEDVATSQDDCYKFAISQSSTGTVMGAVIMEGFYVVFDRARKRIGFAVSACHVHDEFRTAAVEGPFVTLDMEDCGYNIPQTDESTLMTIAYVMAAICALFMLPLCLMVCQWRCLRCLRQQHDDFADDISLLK

[5] = target: Acetylcholinesterase (Electrophorus electricus) (UniProt O42275); assay: Inhibition of electric eel AChE at 10 uM using acetylthiocholine as substrate preincubated for 5 mins followed by substrate addition and measured after 5 mins by Ellman's method relative to control; settings: time 10.0 min
Sequence of Acetylcholinesterase (Electrophorus electricus) (O42275 24-633 limits assumed): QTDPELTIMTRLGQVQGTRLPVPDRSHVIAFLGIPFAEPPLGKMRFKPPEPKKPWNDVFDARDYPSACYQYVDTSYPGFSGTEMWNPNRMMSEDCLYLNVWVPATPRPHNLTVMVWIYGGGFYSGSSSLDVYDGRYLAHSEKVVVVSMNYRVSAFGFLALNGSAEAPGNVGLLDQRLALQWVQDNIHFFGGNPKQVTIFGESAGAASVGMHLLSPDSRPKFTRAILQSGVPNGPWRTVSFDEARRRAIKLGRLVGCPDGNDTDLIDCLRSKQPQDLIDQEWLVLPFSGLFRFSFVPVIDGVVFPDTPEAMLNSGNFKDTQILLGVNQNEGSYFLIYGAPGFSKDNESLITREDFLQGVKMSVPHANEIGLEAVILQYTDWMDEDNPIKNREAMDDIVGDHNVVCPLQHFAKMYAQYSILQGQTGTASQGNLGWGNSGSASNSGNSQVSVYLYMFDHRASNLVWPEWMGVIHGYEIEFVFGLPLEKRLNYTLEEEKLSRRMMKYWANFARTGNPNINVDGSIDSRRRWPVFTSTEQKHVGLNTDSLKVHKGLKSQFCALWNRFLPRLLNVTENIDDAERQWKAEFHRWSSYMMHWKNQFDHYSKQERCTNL

[6] = target: T3, Cholinesterase (Homo sapiens, UniProt P06276)
T3 sequence (P06276 whole entry): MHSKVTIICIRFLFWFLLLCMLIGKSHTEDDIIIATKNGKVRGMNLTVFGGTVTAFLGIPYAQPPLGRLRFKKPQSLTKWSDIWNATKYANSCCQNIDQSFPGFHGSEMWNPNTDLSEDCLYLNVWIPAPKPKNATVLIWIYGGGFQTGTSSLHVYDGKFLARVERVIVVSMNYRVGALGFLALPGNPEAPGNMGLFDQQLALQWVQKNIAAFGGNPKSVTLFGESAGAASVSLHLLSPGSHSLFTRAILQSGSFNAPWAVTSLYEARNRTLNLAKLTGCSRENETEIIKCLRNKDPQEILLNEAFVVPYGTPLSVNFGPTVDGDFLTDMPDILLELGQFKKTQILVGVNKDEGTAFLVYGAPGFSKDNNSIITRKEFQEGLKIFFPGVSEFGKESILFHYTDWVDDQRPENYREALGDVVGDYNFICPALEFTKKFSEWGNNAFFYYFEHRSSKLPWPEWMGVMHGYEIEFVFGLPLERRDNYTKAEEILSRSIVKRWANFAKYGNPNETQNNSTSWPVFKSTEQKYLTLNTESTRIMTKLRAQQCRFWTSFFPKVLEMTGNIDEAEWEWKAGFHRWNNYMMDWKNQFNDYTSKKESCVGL
Description: Inhibition of human BuchE using butyrylthiocholine as substrate preincubated for 5 mins followed by substrate addition and measured after 5 mins by Ellman's method

[7] = target: T4, Sodium- and chloride-dependent GABA transporter 1 (Mus musculus, UniProt P31648); assay: Inhibition of mouse GAT1 expressed in HEK293 cell line assessed as reduction in [3H]GABA uptake incubated for 10 mins; type: cell-based
[8] = target: T4, Sodium- and chloride-dependent GABA transporter 1; assay: Inhibition of NO711 binding to mouse GAT1 expressed in HEK cell membranes incubated for 40 mins in presence of NO711 by LC-ESI-MS/MS analysis; design: species or system Membrane
[9] = Neurotoxicity against mouse HT22 cells assessed as cell viability at 10 uM incubated for 24 hrs by MTT assay; type: cell-based, HT-22; settings: for Activity: ht-22, 24 h, 10 µM
[10] = Neurotoxicity against mouse HT22 cells assessed as cell viability at 30 uM incubated for 24 hrs by MTT assay; type: cell-based, HT-22; settings: for Activity: ht-22, 24 h, 30 µM
[11] = target: T2, Beta-secretase 1
[12] = target: T5, GABA transporter 4 (Mus musculus) (UniProt P31650); assay: Inhibition of mouse GAT4 expressed in HEK293 cell line assessed as reduction in [3H]GABA uptake at 100 uM incubated for 10 mins relative to control; type: cell-based
T5 sequence (whole entry): T1 sequence (P31650 whole entry)

[13] = target: Sodium- and chloride-dependent GABA transporter 1 (Mus musculus) (UniProt P31648); assay: Inhibition of NO711 binding to mouse GAT1 expressed in HEK cell membranes at 100 uM incubated for 40 mins in presence of NO711 by LC-ESI-MS/MS analysis relative to control; settings: Membrane
[14] = target: T5, GABA transporter 4 (Mus musculus); assay: Inhibition of mouse GAT3 expressed in HEK293 cell line assessed as reduction in [3H]GABA uptake at 100 uM incubated for 10 mins relative to control; type: cell-based
[15] = target: Acetylcholinesterase (Electrophorus electricus, UniProt O42275); assay: Inhibition of electric eel AChE using acetylthiocholine as substrate preincubated for 5 mins followed by substrate addition and measured after 5 mins by Ellman's method
Sequence of Acetylcholinesterase (O42275 whole entry): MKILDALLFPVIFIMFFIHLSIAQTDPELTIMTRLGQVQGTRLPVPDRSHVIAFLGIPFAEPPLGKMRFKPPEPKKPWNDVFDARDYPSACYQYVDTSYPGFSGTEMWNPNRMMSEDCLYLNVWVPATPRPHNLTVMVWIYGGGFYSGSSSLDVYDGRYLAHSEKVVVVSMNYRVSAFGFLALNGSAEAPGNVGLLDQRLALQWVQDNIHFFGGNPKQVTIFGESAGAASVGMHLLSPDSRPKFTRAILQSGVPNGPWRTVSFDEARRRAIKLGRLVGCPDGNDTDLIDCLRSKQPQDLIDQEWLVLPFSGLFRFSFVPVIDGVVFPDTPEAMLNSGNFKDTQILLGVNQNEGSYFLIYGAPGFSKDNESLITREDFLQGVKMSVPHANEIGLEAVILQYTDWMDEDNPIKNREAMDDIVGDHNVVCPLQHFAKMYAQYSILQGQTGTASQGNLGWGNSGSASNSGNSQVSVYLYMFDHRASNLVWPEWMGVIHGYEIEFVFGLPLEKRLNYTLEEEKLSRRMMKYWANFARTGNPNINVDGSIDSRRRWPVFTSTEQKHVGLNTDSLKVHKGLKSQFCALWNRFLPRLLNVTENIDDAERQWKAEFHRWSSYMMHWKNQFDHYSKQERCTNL

[16] = Hepatotoxicity in human HepG2 cells at 50 to 100 uM incubated for 72 hrs by MTS assay; type: cell-based; settings: hepg2, 72 h, dose 50-100 µM
[17] = target: Cytochrome P450 3A4 (Homo sapiens, UniProt P08684); assay: Inhibition of CYP3A4 (unknown origin) at 10 uM; type: ADME
[18] = target: Cholinesterase (Equus caballus) (UniProt P81908); assay: Noncompetitive inhibition of equine serum BuChE assessed as decrease in Vmax with constant Km using varying concentrations of BTC as substrate by Lineweaver-burk and Cornish-Bowden plot analysis
Sequence of Cholinesterase (Equus caballus) (P81908 whole entry): as the sequence (P81908 whole entry) above

[19] = Hepatotoxicity in human HepG2 cells at 1 uM incubated for 72 hrs by MTS assay; type: cell-based; settings: hepg2, 72 h
[20] = Metabolic stability in human liver microsomes assessed as parent compound remaining after 120 mins in presence of NADPH regeneration system by UPLC/MS anlaysis; type: ADME, Microsome; settings: read-out: Stabilty
[21] = target: Cytochrome P450 2D6 (Homo sapiens, UniProt P10635); assay: Inhibition of CYP2D6 (unknown origin) at 10 uM; type: ADME
[22] = target: Microtubule-associated protein tau (Homo sapiens) (UniProt P10636); assay: Inhibition of tau aggregation (unknown origin) at 10 uM after 72 hrs by thioflavin-T fluorometric assay relative to control
[23] = target: T3, Cholinesterase; assay: Inhibition of human BuchE at 1 uM using butyrylthiocholine as substrate preincubated for 5 mins followed by substrate addition and measured after 5 mins by Ellman's method relative to control; settings: time 10.0 min
[24] = target: Sodium- and chloride-dependent GABA transporter 1 (Mus musculus) (UniProt P31648); assay: Inhibition of mouse GAT1 expressed in HEK293 cell line assessed as reduction in [3H]GABA uptake at 100 uM incubated for 10 mins relative to control; type: cell-based
[25] = target: Cholinesterase (Equus caballus) (UniProt P81908); assay: Inhibition of equine serum BuChE at 10 uM using butyrylthiocholine as substrate preincubated for 5 mins followed by substrate addition and measured after 5 mins by Ellman's method relative to control; settings: time 10.0 min
[26] = target: T6, GABA transporter 3 (Mus musculus) (UniProt P31649); assay: Inhibition of mouse GAT2 expressed in HEK293 cell line assessed as reduction in [3H]GABA uptake at 100 uM incubated for 10 mins relative to control; type: cell-based
T6 sequence (whole entry): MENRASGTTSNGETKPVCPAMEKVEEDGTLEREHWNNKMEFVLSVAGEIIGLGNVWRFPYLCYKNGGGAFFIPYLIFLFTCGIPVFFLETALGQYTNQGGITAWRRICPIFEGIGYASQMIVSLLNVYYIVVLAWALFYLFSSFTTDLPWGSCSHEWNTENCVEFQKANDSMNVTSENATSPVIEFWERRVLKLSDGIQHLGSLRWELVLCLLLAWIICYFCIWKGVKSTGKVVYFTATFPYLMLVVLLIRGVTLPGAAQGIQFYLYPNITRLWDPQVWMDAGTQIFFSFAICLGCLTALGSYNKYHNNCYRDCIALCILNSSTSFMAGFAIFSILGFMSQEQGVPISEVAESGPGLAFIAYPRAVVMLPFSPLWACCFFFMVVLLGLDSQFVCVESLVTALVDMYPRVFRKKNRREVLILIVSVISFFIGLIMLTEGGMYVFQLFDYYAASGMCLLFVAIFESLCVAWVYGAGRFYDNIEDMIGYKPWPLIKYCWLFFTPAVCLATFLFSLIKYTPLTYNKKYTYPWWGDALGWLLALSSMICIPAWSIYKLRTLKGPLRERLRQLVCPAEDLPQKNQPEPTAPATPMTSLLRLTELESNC

SMILES	IC50 [2]	inhibition [3]	inhibition [4]	inhibition [5]	IC50 [6]	IC50 [7]	IC50 [11]	inhibition [12]	inhibition [13]	inhibition [14]	inhibition [23]	inhibition [25]	other results
CC(C)(C)CNC[C@@H](O)[C@H](Cc1ccccc1)NCC(c1ccccc1)c1ccccc1	0.59 µM	34.7%	63.9%	< 10%	0.19 µM	26.3 µM							IC50 [1]: 9.77 µM; IC50 [8]: 85.1 µM
CC(C)(C)c1ccc(CNCC(O)[C@H](Cc2ccccc2)NC(=O)CC(c2ccccc2)c2ccccc2)cc1 (single isomer, unassigned)	0.17 µM	20.5%		< 10%	0.88 µM		6.2 µM						Activity [9]: Non-Toxic; Activity [10]: Toxic
CC(C)(C)c1cccc(CNC[C@@H](O)[C@H](Cc2ccccc2)NC(=O)C(c2ccccc2)c2ccccc2)c1	0.06 µM	20.5%			0.02 µM	11 µM	5.9 µM	55%	82%	55%			Activity [9]: Non-Toxic; Activity [10]: Toxic; IC50 [15]: 2.86 µM; Activity [16]: Toxic; inhibition (INH) [17]: Active; inhibition [18]: Active; Activity [19]: Non-Toxic; remaining at 2 h [20]: 79.6%; inhibition (INH) [21]: Active
O[C@@H](CNCc1ccccc1)[C@H](Cc1ccccc1)NCCC(c1ccccc1)c1ccccc1	0.65 µM	34.7%	58%	< 10%	0.63 µM	7.59 µM							IC50 [1]: 5.5 µM; Activity [9]: Toxic; inhibition [22]: 85.8%; IC50 [8]: 30.2 µM
C[C@H](NC[C@@H](O)[C@H](Cc1ccccc1)NC(=O)C(c1ccccc1)c1ccccc1)c1ccccc1	1.82 µM	20.5%	61.7%	< 10%				79%	81%	84%	14.5%		inhibition [24]: 77%
CC(C)(NC[C@@H](O)[C@H](Cc1ccccc1)NC(=O)C(c1ccccc1)c1ccccc1)c1ccccc1		20.5%	76.1%	< 10%							< 10%	45.9%	
C[C@H](NC[C@@H](O)[C@H](Cc1ccccc1)NC(=O)CC(c1ccccc1)c1ccccc1)c1ccccc1	8.86 µM	20.5%	74.1%	< 10%				55%	66%	69%	36.4%		viability at 24 h, 10 µM ([9]; HT22 cells, read-out: Activity): 100%; viability at 24 h, 30 µM ([10]; HT22 cells, read-out: Activity): 50%; inhibition [22]: 73.1%; inhibition [24]: 59%; inhibition [26]: 51%
CC(C)c1cccc(CNC[C@@H](O)[C@H](Cc2ccccc2)NC(=O)C(c2ccccc2)c2ccccc2)c1	0.5 µM	20.5%	66%		0.08 µM								IC50 [15]: 5.13 µM
O=C(CC(c1ccccc1)c1ccccc1)N[C@@H](Cc1ccccc1)[C@H](O)CNCC(F)(F)F		20.5%	24.4%	< 10%							< 10%	19.2%	
CC(C)c1cccc(CNC[C@@H](O)[C@H](Cc2ccccc2)NC(=O)CC(c2ccccc2)c2ccccc2)c1	0.65 µM	20.5%		24%	0.5 µM		4.6 µM						Activity [16]: Toxic; inhibition (INH) [17]: Active; Activity [19]: Non-Toxic; remaining at 2 h [20]: 67.9%; inhibition (INH) [21]: Active
O=C(N[C@@H](Cc1ccccc1)[C@H](O)CNCC(F)(F)F)C(c1ccccc1)c1ccccc1		20.5%		< 10%			15.4 µM	102%	100%	92%	< 10%	26.3%	inhibition [24]: 92%; inhibition [26]: 87%
O=C(CC(c1ccccc1)c1ccccc1)N[C@@H](Cc1ccccc1)[C@H](O)CNCC1CC1	3.23 µM	20.5%	< 10%	< 10%		39.8 µM			83%	51%	41.1%		IC50 [1]: 35.5 µM; inhibition [26]: 60%
O=C(CC(c1ccccc1)c1ccccc1)N[C@@H](Cc1ccccc1)[C@@H](O)CNCc1cccc(C(F)(F)F)c1		20.5%		36.8%			8.3 µM				< 10%	29.5%	
